Residues, ends and D or L forms follow the SMILES beside them. *: point of attachment. Cbz = O=C(OCc1ccccc1)*
Legend:
[1] = system: ATRA-induced gene expression in NB4 cells; experiment: RNA sequencing of NB4 cells; format: cell-based, human; conditions: NB4, MG132 or DMSO, ATRA 0, 8, 24 h
Experimental: Cell lines were expanded, treated with ligand, and incubated at 37C. Cells were pelleted by centrifugation for 5 minutes, washed with cold PBS, and RNA was isolated by RNeasy kit (Qiagen) per manufacturer’s instructions. RNA was sent to Novogene for library preparation and sequencing, or prepared for sequencing (NEBNext, New England Biolabs) and sequenced on an Illumina NextSeq 550 sequencer.
Paired-end reads were aligned to the hg38.p13[81],[82] reference genome with the STAR[83] (v5.2.7b) aligner as part of the RSEM[99] command line tool. Gene transcript abundance was further quantified from aligned fragments using RSEM to generate a gene-by-sample matrix of expected counts. Differential expression was tested, as with the ChIP-seq data, using the DESeq[88],[93]2 and ashr[94] pipeline, this time calculating sample-specific scale factor offset using the method of median-ratio as implemented in the R package EBSeq[100] (v1.36.0). For plotting in heatmaps, genes were selected based on ChIP-seq peak annotation and subset.

RARA and UBR5 = experiment: BRET assay of RARA and UBR5; format: cell-based, human; conditions: ± 9-cis RA, n = 3
Excerpt: Bioluminescence resonance energy transfer (BRET) experiments were done using the NanoBRET PPI kit (Promega, N1821) according to manufacturer’s instructions.

[2] = system: RARA/RXRA heterodimer (pre-formed complex with fluorescein-labelled NCOA1 peptide); experiment: Fluorescence polarization, competitive reverse titration of unlabeled peptides; format: binding, human; conditions: with ATRA; 10 nM tracer, 0.5 μM RARA/RXRA, competitor 0–85 μM; 20 mM HEPES pH 7.4, 110 mM NaCl; room temperature; variable slope fit; duplicates
Experimental: Fluorescein-labelled NCOA1 peptide residues […] (Flc-[…]) was used as a fluorescent tracer as described previously.[71] Increasing amounts of RARA/RXRA heterodimer (0.1–26 μM final concentration) were mixed with tracer (10 nM final concentration) in a 384-well microplate (784076, Greiner) at room temperature. The interaction was measured in a final buffer containing 20 mM HEPES pH 7.4, 110 mM NaCl, 500 μM TCEP, 1% Glycerol, 0.1% (v/v) pluronic acid with or without 100 μM all-trans-retinoic acid. A PHERAstar FS microplate reader (BMG Labtech) equipped with a fluorescence polarization filter unit was used to determine changes in fluorescence polarization. The polarization units were converted to fraction bound, defined as (mPfree – mP) / (mPfree – mPbound), as described previously.[72] […]
A. RARAreporter degradation in HEK293cells withCRISPR-editedUBR5 deficientof itsHECTdomain inthepresence or absenceof ATRA (n=3 two-sided ttest).B. Ubiquitylation assayof a pseudo-primedRARA/RXRAsubstrate, generated as His-3Ub~RARA and His-3Ub~RXRA linearfusions in E.coli.Wild type UBR5 can rapidly branch and extend Ub chains on the substrate, however indicated mutants of the UBA domain severely hinder chain extension. […] Fluorescence polarization (FP) experiment showing forward titrationof RARA/RXRA intoa fluorescein-labelled NCOA1 peptide (residues 686-698). […]

UBR5-RARA = experiment: UBR5 pull-down competition with NCOA1; format: binding, human; conditions: NCOA at 0.5, 5 and 10× molar excess relative to UBR5, with ATRA
Excerpt: Figure 2. UBR5 competes with nuclear coactivators for the conserved hydrophobic cleft of NRs (A) Schematic of RARA domain architecture; NTD, N-terminal domain; DBD, DNA-binding domain; LBD, ligand-binding domain. (B) Degradation of RARA reporters containing 4–5 surface-exposed alanine mutations per helix, relative to untreated (DMSO) (n = 3 two-sided t test). See Figure S2 for detailed amino acid substitutions. (C) Degradation of RARA reporters containing glutamate-substituted residues within the H3/H4 hydrophobic cleft. (n = 3 two-sided t test). […] FLAG-UBR5 (15 pmol) was pre-bound to a large excess of His-RARA in the presence of ATRA and excess RARA protein washed away. Increasing amounts of full-length NCOA1 protein were then added to outcompete the UBR5-RARA interaction. NCOA was titrated with a 0.5, 5, and 10× molar excess relative to UBR5. (F) Relative abundances in RARA-GFP IP-MS of NCOR1, NCOA1, and UBR5 normalized to RARA abundance following 0, 4, and 16 h of ATRA treatment.
12 μL of FLAG M2 slurry were equilibrated with binding buffer (25 mM HEPES pH 7.4, 125 mM NaCl, 0.05% TWEEN-20). The resin was pelleted and excess buffer removed. 60 μL of fresh binding buffer was re-added, followed by addition of 15 pmol (2.5 μL ofa6 μM solution) of purified FLAG-UBR5 protein and incubated on a rotating wheel at 4°C for 60–90 minutes. […]

3Ub~RARA/RXRA substrate = experiment: In vitro ubiquitylation of pseudo-ubiquitylated RARA/RXRA; format: biochemical, human
Excerpt: Input UBR5 variants -50 RARA/RXRA (µM)[NCOA1 peptide] uM
250 NCOA1 peptide (fluorescein-labeled probe): 5-FAM-[…]
200 LxxLLs UBR5 peptides (unlabeled): […]
Unlabelled peptide (µM)UBR5 peptide (µM)
0.0 +RARA/RXRA + retinoic acid
H A-1 A-2 Name Expressed UBR5 construct […]
round kDa WT LxxA LxxA WT 1-2799 kDa Input Backg WT LxxAA-1 LxxAA-2 ∆ UBR ∆ tandem ∆ UBA 250 […]
Figure S5. Interaction ofUBR5with NRs and LxxLL motifs,Related to Figure 3
A. RARAreporter degradation in HEK293cells withCRISPR-editedUBR5 deficientof itsHECTdomain inthepresence or absenceof ATRA (n=3 two-sided ttest).B. Ubiquitylation assayof a pseudo-primedRARA/RXRAsubstrate, generated as His-3Ub~RARA and His-3Ub~RXRA linearfusions in E.coli.Wild type UBR5 can rapidly branch and extend Ub chains on the substrate, however indicated mutants of the UBA domain severely hinder chain extension. C. Fluorescence polarization (FP) experiment showing forward titrationof RARA/RXRA intoa fluorescein-labelled NCOA1 peptide (residues 686-698). […]
Fluorescence polarization experiments depicting competitive reverse titrationwith indicated peptides against a pre-formed complex of RARA/RXRA with a fluorescein-labelled peptide of NCOA1 (residues 686-698) in the presence of ATRA. Titrations were performed in duplicate and binding constants determined after converting fluorescence polarization values tofraction bound of originalcomplex. […]

With `CC(C)C[C@@H](C=O)NC(=O)[C@H](CC(C)C)NC(=O)[C@H](CC(C)C)NC(=O)OCc1ccccc1` [MG132] (Cbz-Leu-Leu-Leu-aldehyde) the “effect of proteasomal inhibition (MG132) on ATRA-induced transcription” value [1] was “strongly decreased ATRA-induced transcription”.
With `CC1=C(/C=C/C(C)=C\C=C\C(C)=C\C(=O)O)C(C)(C)CCC1` [RA] the “RARA/UBR5 BRET luminescence” value (RARA and UBR5) was “exhibited more luminescence than controls”.
For LQPYLRELLSAKD [UBR5 aa1098], the Kapp [2] was 41.4 ± 2.8 µM.
NCOA1: full-length NCOA1 protein was tested, and the “UBR5 binding to RARA in presence of excess NCOA1” value (UBR5-RARA) was “impaired by an excess of full-length NCOA1”.
RLDLLYRLLTATN [UBR5 aa1251] gave a Kapp [2] of 3.1 ± 0.1 µM.
“UBR5^V196K: UBR5 with a substitution at the ubiquitin-binding interface” was tested, and the “processivity in ubiquitylation assay” value (3Ub~RARA/RXRA substrate) was “severely hindered processivity in ubiquitylation assays”.
In the case of “UBR5^Δ83–347: UBR5 lacking the UBA insertion entirely”, the “processivity in ubiquitylation assay” value (3Ub~RARA/RXRA substrate) is reported as “severely hindered processivity in ubiquitylation assays”.

Reference: PMC11134608, “UBR5 forms ligand-dependent complexes on chromatin to regulate nuclear hormone receptor stability” (Molecular cell, 2023)
